Laboratory results from patent publication US11584741B2, “Crystalline forms of 4-(5-(4,7-dimethylbenzofuran-2-yl)-1,2,4-oxadiazol-3-yl)benzoic acid and processes for their preparation” (King's College London, priority 2016, dated 2023).
≈ marks a conversion by molar mass, not a printed value. Entries after “also recorded” stand apart in the source; their conditions may differ.

Tests used:
[1] = Dynamic vapour sorption (DVS) hygroscopicity; assay type: physicochemical; conditions: from DVS, 0% to 95% RH
Method: The DVS studies were performed using a Surface Measurement Systems Ltd. DVS-1 No Video (Equipment #2126).
The sample was weighed in a glass pan, typically 20-30 mg, and equilibrated at 0% RH. After the material had dried, the relative humidity (RH) was increased with 10% per step for 1 hour per increment, ending at 95% RH.
The software used for data collection was DVSWn v3.01 No Video. Data analysis was performed using DVS Standard Analysis Suite v6.3.0 (Standard).
To determine the hygroscopicity of Form 1, a DVS plot was measured at 25° C. for a double sorption-desorption cycle. The total mass uptake was 8.7% w/w between 0% and 95% RH, which characterised Form 1 as a hygroscopic form. The uptake was reversible and reproducible.
To determine the hygroscopicity of Form 4, a DVS plot was measured at 25° C. for a double sorption-desorption cycle. The total mass uptake was 0.1% between 0% and 95% RH, which characterises Form 4 as a non-hygroscopic form.

cerebellar neurons = test: Neurite outgrowth assay, cerebellar neurons in the presence of myelin / MAG; assay type: cell-based, rat; conditions: for Effect on RARβ agonist (CD2019) mediated neurite outgrowth: cerebellar neurons cultured with CD2019 plus inhibitor; for Effect on RARβ agonist (CD2019) mediated neurite outgrowth in the presence of MAG: cerebellar neurons
Method: Cerebellar neurons isolated from post-natal day 3 rat pups were cultured over monolayers of parental 3T3 cells in control media, or media supplemented with a recombinant MAG-Fc chimera (R&D Systems) used at a final concentration of 20 μg/mL MAG-Fc. The monolayers were established for 24 hours prior to addition of the neurons and the co-cultures were maintained for approximately 21 hours. Following careful fixation with 4% paraformaldehyde, the neurons were immuno-stained with a GAP-43 antibody (from Graham Wilkin, Imperial College), dilution of 1:500, and the mean length of the longest neurite per cell was measured for approximately 120-150 neurons as previously described (see, e.g., Williams et al., 2005). DRG and cortical explants were obtained from adult rats, they were cultured in cellogen as previously described (see, e.g., Corcoran and Maden, 1999). Three explants per treatment were used. Neurite outgrowth was assessed 3 days later by immunohistochemistry with NF200 (Sigma, dilution of 1:200). The average lengths of the neurites were measured using image pro plus software. Media consisted of DMEM-F12 (Invitrogen) containing N2 (Invitrogen) supplemented with glucose (33 mM) and glutamine (2 mM).

RARβ [2] = molecular target: T1, RARβ (Homo sapiens, UniProt P10826); test: Transcriptional transactivation assay, gal4-RAR fusion receptor / luciferase reporter in COS-7 cells; assay type: cell-based; conditions: Table 21
T1 construct: expressed in transfected cells; host or cells: COS-7
T1 sequence (P10826 183-417 limits assumed): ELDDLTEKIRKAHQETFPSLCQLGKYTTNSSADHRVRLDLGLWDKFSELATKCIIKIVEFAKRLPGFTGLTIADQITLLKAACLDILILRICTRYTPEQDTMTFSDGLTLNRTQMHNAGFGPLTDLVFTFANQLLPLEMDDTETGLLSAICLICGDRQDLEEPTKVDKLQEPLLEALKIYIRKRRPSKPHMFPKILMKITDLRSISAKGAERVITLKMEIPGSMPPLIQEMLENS
Method: (§1) Transcriptional transactivation assays were performed with gal4 fusion receptor constructs, created using each of the RAR ligand binding domains of either mouse or human, co-transfected with the pFR-luc (Stratagene) reporter construct in COS-7 cells.
(§2) Briefly, on day 1, 96 well plates were seeded with 8000 cells per well then left to recover overnight. On day 2, the cells were co-transfected with 100 ng of reporter plasmid and 10 ng of the appropriate receptor plasmid per well using lipofectamine (Invitrogen). On day 3, the lipofectamine containing media was replaced by a DMEM without phenol red, followed by the addition of test compound dissolved in 1 μL of DMSO to each well's 100 μL total volume. Finally, on day 4, the cells were lysed and their luciferase substrate was provided by the BrightGlo™ reagent (Promega), the plates were then read on the MicroBeta TrLux™ (Perkin Elmer).
(§3) Data for test compounds are quoted as EC50 values. Where replicate data has been generated, the data are quoted as the mean EC50 from the separate experiments.

RARβ [3] = molecular target: T2, RARβ (Mus musculus, UniProt P22605); test: as above; assay type: cell-based
T2 construct: expressed in transfected cells; host or cells: COS-7
T2 sequence (P22605 210-444 limits assumed): T1 sequence (P10826 183-417 limits assumed)
Method: as §1, §2, §3

[4] = test system: rats with severed and re-implanted sensory roots at the level of the left forelimb; test: Sensory roots of four DRG severed and re-implanted into the spinal cord, sticky tape tests; assay type: in vivo; conditions: rat, after 5 weeks, 1 mg/kg three times a week
Method: In another example of nerve injury, the four sensory roots from each of four DRG at the level of the left forelimb were severed and re-implanted into the spinal cord.
The results are illustrated in Borthwick et al., 2016. […] Rats were treated with 1 mg/kg of the test compound or vehicle two days after lesion, and then three times a week for the period of the experiment. Error bars show SEM. ***P<0.001, students t test, n=3-4 rats for each treatment group. At weeks 3, 4, and 5, there was significant difference between the rats treated with RARβ agonist as compared to rats treated with other retinoid agonists and vehicle.

[5] = Solubility studies, shake-flask method in 15 solvents; assay type: physicochemical; conditions: for solubility at 24 h: 20° C.
Method: The solubility of BHBA-001 (characterised by XRPD as Form 1) was determined in 15 solvents to study the initial polymorphic behaviour. A shake-flask method was applied in which solid was added stepwise (e.g., 10 mg at a time) to a known amount of solvent (e.g., 3 mL). The solubility was confirmed visually. After the addition, the suspension/solution was held for 24 hours at 20° C. in order to check for slow dissolution or recrystallization. If the solid was not completely dissolved, the suspension was heated to 50° C. to encourage dissolution. The solvent was then removed by evaporation, in some cases, with the help of anti-solvent. The resulting solid was analysed using XRPD.

[6] = Stability studies on storage (appearance, drug content, water content, drug-related impurities); assay type: physicochemical
Method: Stability studies were performed as follows. Samples were packaged in double low density polyethylene bags, sealed with plastic ties, and placed in high-density polyethylene (HDPE) drums.
The samples were tested periodically for visual appearance, drug content (by HPLC), water content (by Karl Fischer titration), and drug-related impurities (by HPLC).
Drug content, corrected to a water and solvent free basis, is calculated from the following equation: Content (%)=100−(water+solvents+residue on ignition+related impurities).
Drug-related impurities were determined using a reverse-phase gradient HPLC method with UV detection at 254 nm, using a 150 mm×4.6 mm, 3 μm Waters Atlantis T3 column, with the following parameters: […]

[7] = after 24 months at 25° C./60% RH and 6 months at 40° C./75% RH

## Cc1ccc(C)c2oc(-c3nc(-c4ccc(C(=O)O)cc4)no3)cc12 [Form 1, 4-(5-(4,7-dimethylbenzofuran-2-yl)-1,2,4-oxadiazol-3-yl)benzoic acid]
[1]
  Hygroscopicity characterisation: hygroscopic

## O=c1cc(N2CCOCC2)oc2c(-c3ccccc3)cccc12 [LY295002]
Cerebellar neurons
  Effect on RARβ agonist (CD2019) mediated neurite outgrowth: severely impeded
  Effect on RARβ agonist (CD2019) mediated neurite outgrowth in the presence of MAG: prevents

## Cc1ccc(C)c2oc(-c3nc(-c4ccc(C(=O)O)cc4)no3)cc12 [BHBA-001, 4-(5-(4,7-dimethylbenzofuran-2-yl)-1,2,4-oxadiazol-3-yl)benzoic acid]
RARβ [2]
  Selectivity over RARα: 23-fold
  Selectivity over RARγ: 5-fold
RARβ [3]; Mouse, Table 21
  Selectivity over RARγ: 6-fold
RARβ [3]; Table 20, mean of three or more determinations, species not given, value equals mouse value of Table 21
  EC50: < 2 nM
[4]
  Behavioural test (sticky tape): performed as well as non-lesioned animals
[5]; in most solvents of the 15 tested
  Solubility (in words): only poorly soluble
[5]; organic solvent or mixture, thermodynamic from solid, 1-propanol, starting solid Form 1
  solubility at 24 h: < 3000 µg/mL
[5]; organic solvent or mixture, thermodynamic from solid, 2-methyltetrahydrofuran, starting solid Form 1
  solubility at 24 h: 5000 to 10000 µg/mL (≈ 15 to 29.9 mM)
[5]; organic solvent or mixture, thermodynamic from solid, 2-propanol, starting solid Form 1
  solubility at 24 h: < 3000 µg/mL
[5]; organic solvent or mixture, thermodynamic from solid, acetic acid, starting solid Form 1
  solubility at 24 h: < 4000 µg/mL
[5]; organic solvent or mixture, thermodynamic from solid, acetone, at 50° C. (footnote), starting solid Form 1
  solubility: < 3000 µg/mL
[5]; organic solvent or mixture, thermodynamic from solid, acetonitrile, starting solid Form 1
  solubility at 24 h: < 4000 µg/mL
[5]; organic solvent or mixture, thermodynamic from solid, dichloromethane, starting solid Form 1
  solubility at 24 h: < 3000 µg/mL
[5]; organic solvent or mixture, thermodynamic from solid, ethanol, starting solid Form 1
  solubility at 24 h: < 4000 µg/mL
[5]; organic solvent or mixture, thermodynamic from solid, ethyl acetate, starting solid Form 1
  solubility at 24 h: < 4000 µg/mL
[5]; organic solvent or mixture, thermodynamic from solid, isopropyl acetate, starting solid Form 1
  solubility at 24 h: 4000 µg/mL (≈ 12 mM)
[5]; organic solvent or mixture, thermodynamic from solid, methyl tert-butyl ether, starting solid Form 1
  solubility at 24 h: < 3000 µg/mL
[5]; organic solvent or mixture, thermodynamic from solid, n-heptane, starting solid Form 1
  solubility at 24 h: < 3000 µg/mL
[5]; organic solvent or mixture, thermodynamic from solid, tetrahydrofuran (THF), starting solid Form 1
  solubility at 24 h: 9000 to 30000 µg/mL (≈ 26.9 to 89.7 mM)
[5]; organic solvent or mixture, thermodynamic from solid, toluene, starting solid Form 1
  solubility at 24 h: < 3000 µg/mL
[5]; thermodynamic from solid, water, starting solid Form 1
  solubility at 24 h: < 3000 µg/mL

## CCCCCCOC(=O)[C@]1(O)C[C@@H]2O[C@@]1(C)n1c3ccccc3c3c4c(c5c6ccccc6n2c5c31)C(=O)NC4 [KT5720]
Cerebellar neurons
  Effect on RARβ agonist (CD2019) mediated neurite outgrowth: little or no effect
  Effect on RARβ agonist (CD2019) mediated neurite outgrowth in the presence of MAG: does not affect

## Cc1ccc(C)c2oc(-c3nc(-c4ccc(C(=O)O)cc4)no3)cc12 [Form 4, 4-(5-(4,7-dimethylbenzofuran-2-yl)-1,2,4-oxadiazol-3-yl)benzoic acid]
[6]; 25° C./60% RH
  Storage time shown to be stable: at least 24 months
[6]; 25° C./60% RH, 3 months
  Drug Content: 98.7 % w/w
  Drug-Related Impurities: 0.06 % area
  Visual Appearance: As initial
  Water content: <0.1 % w/w
[6]; 25° C./60% RH, 6 months
  Drug Content: 100.2 % w/w
  Drug-Related Impurities: 0.05 % area
  Visual Appearance: As initial
  Water content: <0.1 % w/w
[6]; 25° C./60% RH, 9 months
  Drug Content: 99.2 % w/w
  Drug-Related Impurities: 0.03 % area
  Visual Appearance: As initial
  Water content: <0.1 % w/w
[6]; 25° C./60% RH, 12 months
  Drug Content: 100.4 % w/w
  Drug-Related Impurities: 0.03 % area
  Visual Appearance: Off-white
  Water content: <0.1 % w/w
[6]; 25° C./60% RH, 18 months
  Drug Content: 101.1 % w/w
  Drug-Related Impurities: 0.07 % area
  Visual Appearance: Off-white
  Water content: <0.1 % w/w
[6]; 25° C./60% RH, 24 months
  Drug Content: 101.5 % w/w
  Drug-Related Impurities: <0.03 % area
  Visual Appearance: As initial
  Water content: <0.1 % w/w
[6]; 40° C./75% RH
  Storage time shown to be stable: ≥ 6 months
[6]; 40° C./75% RH, 3 months
  Drug Content: 98.3 % w/w
  Drug-Related Impurities: 0.10 % area
  Visual Appearance: As initial
  Water content: <0.1 % w/w
[6]; 40° C./75% RH, 6 months
  Drug Content: 99.8 % w/w
  Drug-Related Impurities: 0.05 % area
  Visual Appearance: As initial
  Water content: <0.1 % w/w
[6]; Initial, 0 months
  Drug Content: 100.1 % w/w
  Drug-Related Impurities: 0.03 % area
  Visual Appearance: White
  Water content: <0.1 % w/w
[6]; [7]
  Change of appearance on storage: essentially unchanged
  Change of drug content on storage: essentially unchanged
  Change of drug-related impurity levels on storage: essentially unchanged
  Change of water content on storage: essentially unchanged
[6]; ambient conditions
  Stability at ambient conditions (in words): stable for many months
[1]
  Hygroscopicity characterisation: low hygroscopicity; also recorded: non-hygroscopic
